Laboratory results reported in patent US20250127906A1, “SMALL-MOLECULE DEGRADERS OF CDK8 AND CDK19” (University of South Carolina, priority 2021, published 2025).

How the values were obtained:
CDK19 [1] = target: T1, CDK19 (Homo sapiens, UniProt Q9BWU1); experiment: CDK19 degradation in other human cell lines (22Rv1, MV4-11, HAP-1, HTB-185, SAOS2, SJSA-1); format: cell-based; parameters: endogenous in cells; conditions: 24-hr treatment
Text: FIG. 5 illustrates the effects of the novel PROTACs HP8580, IA7843 and IA7886 on CDK8 and CDK19 degradation in other human cell lines, including 22Rv1 prostate cancer (expressing more CDK19 than CDK8), MV4-11 (AML) and HAP-1 (CML) leukemia cell lines, HTB-185 medulloblastoma, and SAOS2 and SJSA-1 osteosarcoma (the latter expressing only CDK19 but not CDK8).
Target sequence in this assay (Q9BWU1 whole entry): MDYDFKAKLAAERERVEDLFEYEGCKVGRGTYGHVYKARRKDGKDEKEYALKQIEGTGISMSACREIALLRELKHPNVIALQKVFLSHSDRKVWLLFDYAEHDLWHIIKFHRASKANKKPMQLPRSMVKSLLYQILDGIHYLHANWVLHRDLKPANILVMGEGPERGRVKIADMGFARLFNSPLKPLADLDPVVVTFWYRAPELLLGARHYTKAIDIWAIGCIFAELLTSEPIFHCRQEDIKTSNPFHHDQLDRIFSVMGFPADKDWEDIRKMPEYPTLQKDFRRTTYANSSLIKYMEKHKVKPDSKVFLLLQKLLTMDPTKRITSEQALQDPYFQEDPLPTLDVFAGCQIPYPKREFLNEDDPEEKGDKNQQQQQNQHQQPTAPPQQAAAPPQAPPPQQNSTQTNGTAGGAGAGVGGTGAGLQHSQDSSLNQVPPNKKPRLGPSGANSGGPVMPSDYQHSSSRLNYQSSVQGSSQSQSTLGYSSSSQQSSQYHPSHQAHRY
Target sequence in this assay (P24863 whole entry partner): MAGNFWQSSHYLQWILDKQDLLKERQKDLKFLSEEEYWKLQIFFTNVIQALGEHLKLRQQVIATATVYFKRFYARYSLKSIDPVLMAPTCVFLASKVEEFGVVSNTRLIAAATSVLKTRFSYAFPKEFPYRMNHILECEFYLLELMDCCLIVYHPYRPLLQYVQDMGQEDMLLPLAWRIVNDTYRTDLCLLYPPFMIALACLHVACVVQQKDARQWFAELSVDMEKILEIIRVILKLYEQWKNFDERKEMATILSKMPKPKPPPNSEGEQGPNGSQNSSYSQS

CDK19 [2] = target: T1, CDK19; experiment: CDK19 degradation in HEK-293 cells with CRISPR knockout of CCNC; format: cell-based; parameters: a derivative of HEK-293cells with CRISPR-mediated knockout of CCNC; endogenous in cells; host or cells: HEK-293 with CRISPR knockout of CCNC; conditions: HEK-293 CCNC-knockout cells, 24 hr treatment
Text: (§1) This cell line, however, is unique in lacking Cyclin C (CCNC), the binding partner of CDK8/19. To test if the absence of CDK8-bound CCNC was responsible for the loss of IA7843 CDK8-degrading activity, we have tested the effect of IA7843 on a derivative of HEK-293cells with CRISPR-mediated knockout of CCNC.
Target sequence in this assay (Q9BWU1 whole entry): as the sequence (Q9BWU1 whole entry) above

CDK8 = target: T2, CDK8 (Mus musculus, UniProt Q8R3L8); experiment: CDK8 degradation in murine CT26 colon carcinoma cells; format: cell-based; parameters: endogenous in cells; host or cells: CT26
T2 sequence (Q8R3L8 1-464): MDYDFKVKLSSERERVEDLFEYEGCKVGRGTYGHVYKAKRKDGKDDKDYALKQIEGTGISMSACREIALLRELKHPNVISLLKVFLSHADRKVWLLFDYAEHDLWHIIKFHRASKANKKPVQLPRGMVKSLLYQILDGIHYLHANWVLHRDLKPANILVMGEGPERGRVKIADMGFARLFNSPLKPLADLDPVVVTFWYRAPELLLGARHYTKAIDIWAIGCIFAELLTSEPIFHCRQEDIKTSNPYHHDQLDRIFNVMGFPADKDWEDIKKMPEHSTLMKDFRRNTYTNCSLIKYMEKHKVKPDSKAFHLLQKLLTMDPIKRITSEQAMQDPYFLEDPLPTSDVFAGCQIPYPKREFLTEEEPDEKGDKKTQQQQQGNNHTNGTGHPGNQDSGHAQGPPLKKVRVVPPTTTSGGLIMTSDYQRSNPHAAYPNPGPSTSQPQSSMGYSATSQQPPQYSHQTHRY
T2 sequence (Q62447 1-283 partner): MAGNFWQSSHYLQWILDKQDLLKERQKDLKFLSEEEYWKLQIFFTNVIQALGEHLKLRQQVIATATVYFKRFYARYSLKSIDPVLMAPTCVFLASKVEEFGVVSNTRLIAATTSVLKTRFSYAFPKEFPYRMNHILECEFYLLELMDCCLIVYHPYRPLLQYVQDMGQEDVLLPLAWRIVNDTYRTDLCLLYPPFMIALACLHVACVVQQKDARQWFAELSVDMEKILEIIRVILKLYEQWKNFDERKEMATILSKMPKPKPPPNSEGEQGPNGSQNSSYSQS
Text: Both the extent and the kinetics of CDK8 degradation were similar between two cell lines, with the degradation reaching maximum at about 8 hrs of PROTAC treatment.

CDK19 [3] = target: T1, CDK19; experiment: CDK19 degradation in HEK-293 cells (Western blot); format: cell-based; parameters: PROTACs on CDK8 and CDK19 degradation in HEK-293cells; endogenous in cells; host or cells: HEK-293; conditions: concentration degrading CDK19 to half of level in untreated cells
Text: Furthermore, the degradation of both CDK8 and CDK19 by the PROTACs is also seen to decrease the levels of their binding partner cyclin C (CCNC) (FIG. 2B, D, E), which is known to be protected from proteolytic degradation by its interaction with CDK8 (Barette et al., 2001).
FIGS. 2F and 2G show the effects of different concentrations of potent Senexin C- and BI-1347-based PROTACs on CDK8 and CDK19 degradation in HEK-293cells. Based on these assays, we calculated DC50 values that correspond to PROTAC concentrations inducing degradation of CDK8 and CDK19 to the half of protein level in untreated cells. The corresponding CDK8 DC50 values were 46 nM for IA7843, 6.6 nM for IA7882 and 2.8 nM for IA7886, and CDK19 DC50 values were 1 μM for IA7843, 25 nM for IA7882 and 10 nM for IA7886.
Target sequence in this assay (Q9BWU1 whole entry): as the sequence (Q9BWU1 whole entry) above
Target sequence in this assay (P24863 whole entry partner): as the sequence (P24863 whole entry partner) above

CDK19 [4] = target: T1, CDK19; experiment: CDK19 degradation in Loucy T-cell leukemia cells lacking Cyclin C; format: cell-based; parameters: endogenous in cells; host or cells: Loucy; conditions: Loucy cells (lacking CCNC), 24 hr treatment
Text: as §1
Target sequence in this assay (Q9BWU1 whole entry): as the sequence (Q9BWU1 whole entry) above

MV4-11 cells = experiment: Long-term growth of MV4-11 cells under continuous treatment; format: cell-based, human; conditions: MV4-11, 300 nM continuous
Procedure: The anti-proliferative effects of a PROTAC and a kinase inhibitor were compared in leukemia cell lines. In the long-term treatment experiment shown in FIG. 11A, Jurkat cells (0.1 million cells) were continuously treated with vehicle control (0.1% DMSO), 300 nM BI-1347 or 300 nM IA7886 for 53 days (each condition in biological triplicates). Every 7-8 days, live cells were counted using BioRAD TC20 Automated Cell Counter with trypan blue staining: 0.1 million live cells were passaged to a new T25 flask to propagate under the same treatment conditions. The survival fraction was calculated by dividing the accumulated number of drug-treated cells with the accumulated number of vehicle-treated cells. […] This sustained inhibition property of PROTAC was also observed in MV4-11, a leukemia cell line highly sensitive to CDK8/19 kinase inhibitors.

[5] = tested on: pS727 STAT1 and total STAT1; experiment: pS727 STAT1 and total STAT1 in CT26 tumors in Balb/c mice; format: in vivo; conditions: oral gavage 20 mg/kg, 2, 8 or 24 hrs after dosing
Procedure: CT26 cells were injected subcutaneously into syngeneic Balb/c female mice and allowed to grow to 150˜200 mm^3. Tumor-bearing mice then received PROTACs IA7882 or IA7886 by oral gavage at 20 mg/kg in 30% propylene glycol/70% PEG-400 vehicle. Tumors were collected 2, 8 or 24 hrs after dosing and used to measure protein levels of CDK8, pS727 STAT1 and total STAT1 (by western blotting) and mRNA expression of CCL12, a gene that is inhibited by different CDK8/19 inhibitors in CT26 tumors in vivo (by QPCR).

CDK19 degradation (in words) (CDK19 [2]): efficiently degraded CDK8 and CDK19 | time at which CDK8 degradation reaches maximum (CDK8; 100 nM): about 8 hrs | DC50 (CDK19 [3]): 10 nM | CDK19 degradation (in words) (CDK19 [4]): efficiently degraded CDK8 and CDK19
Compound: O=C(CCCNc1cccc2c1C(=O)N(C1CCC(=O)NC1=O)C2=O)NCCCCCCCCCCC(=O)N1CCN(C(=O)Cn2cc(-c3ccc(-c4cncc5ccccc45)cc3)cn2)CC1 (centres unmarked) [IA7886, 4-[[2-(2,6-dioxo-3-piperidyl)-1,3-dioxo-isoindolin-4-yl]amino]-N-[11-[4-[2-[4-[4-(4-isoquinolyl)phenyl]pyrazol-1-yl]acetyl]piperazin-1-yl]-11-oxo-undecyl]butanamide]
CDK19 degradation (in words) (CDK19 [1]): significantly degraded CDK8 and CDK19 in all the tested cell lines | CDK8 degradation (in words) (CDK8): induce CDK8 degradation in both cell lines | growth inhibition over 60 days (MV4-11 cells): much more stable and continued for the entire 60 days | pS727 STAT1 and total STAT1 in tumors [5]: decreased in most of the tumors collected 2 hrs or 8 hrs after dosing
